Here are results for three molecules from ChEMBL document CHEMBL1201861, “Genomics of Drug Sensitity in Cancer screening data, Wellcome Trust Sanger Institute”.

Each structure is given as a SMILES string.

What all share (type): functional, cell-based
Test [1] concerns C-4-II. Briefly: SANGER: Inhibition of human C-4-II cell growth in a cell viability assay.
Test [2] relates to RT-4. The test is described as follows: SANGER: Inhibition of human RT4 cell growth in a cell viability assay.
For test [3], the system named is SK-CO-1. The test is described as follows: cells. The note with it: Homo sapiens.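 Also: growth inhibition of SK-CO-1 cells, determined by a viability readout.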
Description: SANGER: Inhibition of human SK-CO-1 cell growth in a cell viability assay.
For test [4], the system named is EW-7. The test is described as follows: SANGER: Inhibition of human EW-7 cell growth in a cell viability assay.
Test [5] deals with PLC-PRF-5. Briefly: cells. The note with it: Homo sapiens.
Description: SANGER: Inhibition of human PLC-PRF-5 cell growth in a cell viability assay.
The subject of test [6] is Caov-4. The test is described as follows: cells. The note with it: Homo sapiens.
Description: SANGER: Inhibition of human Caov-4 cell growth in a cell viability assay.
Test [7] relates to NCI-H1618. The test is described as follows: cells. Conditions: Homo sapiens.
Description: SANGER: Inhibition of human NCI-H1618 cell growth in a cell viability assay.
The subject of test [8] is EFE-184. Briefly: cells. Conditions: Homo sapiens.
Description: SANGER: Inhibition of human EFE-184 cell growth in a cell viability assay.
In test [9] the test system is NCI-H838. Briefly: cells. The note with it: Homo sapiens.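 Also: growth inhibition of human NCI-H838 cells, read out by a cell viability assay.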
Description: SANGER: Inhibition of human NCI-H838 cell growth in a cell viability assay.
The subject of test [10] is Caov-3 cell line. The test is described as follows: cells. The note with it: Homo sapiens.
Description: SANGER: Inhibition of human Caov-3 cell growth in a cell viability assay.
In test [11] the test system is DV-90. The test is described as follows: cells. The note with it: Homo sapiens.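 Also: Read-out is a viability assay, with IC50 reflecting the drop in DV-90 cell growth.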
Description: SANGER: Inhibition of human DV-90 cell growth in a cell viability assay.
Test [12] deals with SNU-475. Briefly: cells. The note with it: Homo sapiens.
Description: SANGER: Inhibition of human SNU-475 cell growth in a cell viability assay.
For test [13], the system named is NCI-H2227. The test is described as follows: cells. The note with it: Homo sapiens.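 Also: growth inhibition of the human cell line, read out with a cell viability assay.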
Description: SANGER: Inhibition of human NCI-H2227 cell growth in a cell viability assay.
In test [14] the test system is MES-SA. The test is described as follows: cells. Conditions: Homo sapiens.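 Also: growth inhibition of human MES-SA cells, read out with a cell viability assay.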
Description: SANGER: Inhibition of human MES-SA cell growth in a cell viability assay.
Test [15] has as its system COLO 205. Briefly: cells. The note with it: Homo sapiens.
Description: SANGER: Inhibition of human COLO-205 cell growth in a cell viability assay.
Test [16] deals with TT. Briefly: cells. Conditions: Homo sapiens.
Description: SANGER: Inhibition of human TT cell growth in a cell viability assay.
The test system of test [17] is ECC12. The test is described as follows: cells. Conditions: Homo sapiens.
Description: SANGER: Inhibition of human ECC12 cell growth in a cell viability assay.
Test [18] has as its system MDA-MB-468. Briefly: cells. Conditions: Homo sapiens.
Description: SANGER: Inhibition of human MDA-MB-468 cell growth in a cell viability assay.
Test [19] relates to SNG-M. Briefly: cells. Conditions: Homo sapiens.
Description: SANGER: Inhibition of human SNG-M cell growth in a cell viability assay.
For test [20], the system named is RL95-2. The test is described as follows: cells. Conditions: Homo sapiens.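 Also: RL95-2 growth inhibition determined through a cell viability readout.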
Description: SANGER: Inhibition of human RL95-2 cell growth in a cell viability assay.
Test [21] concerns HCC1143. The test is described as follows: cells. Conditions: Homo sapiens.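 Also: growth inhibition of human HCC1143 cells, read out with a cell viability assay.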
Description: SANGER: Inhibition of human HCC1143 cell growth in a cell viability assay.
Test [22] deals with IPC-298. The test is described as follows: SANGER: Inhibition of human IPC-298 cell growth in a cell viability assay.
Test [23] has as its system NCI-H1734. The test is described as follows: cells. Conditions: Homo sapiens.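 Also: growth inhibition of human NCI-H1734 cells, read out with a cell viability assay.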
Description: SANGER: Inhibition of human NCI-H1734 cell growth in a cell viability assay.

For the molecule `CC(C)=CC[C@@H](O)C1=CC(=O)c2c(O)ccc(O)c2C1=O` [SHIKONIN], the IC50 (usually the point on the concentration scale where inhibition reaches its midpoint) in test [1] is 0.588 µM; in test [2], 10.1 µM; in [3], 2.05 µM; in [4] it was 1.29 µM; in test [5], 1.82 µM; in test [6], 1.88 µM. Further, the IC50 in [7] is 2.02 µM; in test [8], 0.544 µM; in test [9] it was more than 16 µM; in test [10] it was 0.767 µM; in [11], more than 16 µM; in [12] it was 14.1 µM. For the same molecule, the IC50 in test [13] stood at 4.89 µM; in test [14], 0.0413 µM; in test [15], 0.538 µM; in test [16], 1.7 µM; in test [17], 9.65 µM; in [18] it was 0.967 µM. Further, the IC50 is 0.272 µM in [19]; 0.72 µM in test [20]; 0.53 µM in test [21]; more than 16 µM in test [22]; 6.9 µM in test [23].

In the case of `Fc1cc(-c2cc[nH]/c(=N/c3ccc(-n4cnc(N5CCOCC5)n4)cc3)n2)cc(N2CCOCC2)c1`, the IC50 in test [1] was 0.405 µM; in test [2], 3.56 µM; in test [3], 0.912 µM; in [4], 0.562 µM; in [5], 3.95 µM; in test [6], more than 5.12 µM. In addition, the IC50 in [7] was 1.82 µM; in test [8], 3.04 µM; in test [9] it was 0.416 µM; in [10] it was more than 5.12 µM; in test [11] it was 0.958 µM; in test [12], more than 5.12 µM. The concentration for half-maximal inhibition (IC50) was more than 5.12 µM in test [13]; 0.717 µM in test [14]; 0.152 µM in test [15]; 3.55 µM in test [16]; 0.324 µM in test [17]; 0.944 µM in [18]. Besides, the IC50 stood at 0.642 µM in test [19]; 0.66 µM in [20]; 0.954 µM in test [21]; 0.854 µM in test [22]; 0.582 µM in test [23].

As to `O=c1[nH]c2ccccc2n1C1CCN(Cc2ccc(-c3nc4cc5[nH]cnc5cc4nc3-c3ccccc3)cc2)CC1`, the IC50 in test [1], in [2], in [3], in test [4], in test [5] and in test [6] was more than 2.56 µM in each case. The IC50 in test [7], in test [8], in [9], in test [10], in [11] and in test [12] was more than 2.56 µM throughout. Also, the IC50 was more than 2.56 µM in [13]; more than 2.56 µM in test [14]; 2 µM in test [15]; more than 2.56 µM in [16]; more than 2.56 µM in test [17]; more than 2.56 µM in test [18]. The IC50 in test [19], in [20], in test [21], in [22] and in test [23] was more than 2.56 µM each time.
